The values that follow come from patent US10538495B2, “Modulators of indoleamine 2,3-dioxygenase” (GLAXOSMITHKLINE INTELLECTUAL PROPERTY DEVELOPMENT LIMITED, priority 2016, dated 2020).

Structures are written as SMILES.

The target of assay [1] is T1, indoleamine 2,3-dioxygenase (IDO1) (Homo sapiens, UniProt P14902). Kind of assay: HeLa IDOi assay (kynurenine by mass spectrometry). Conditions: IFN-γ stimulated HeLa cells, 2 days, kynurenine detected by mass spectrometry; read-out: HeLa pIC50 (converted). Further details: human epithelial HeLa cells (CCL-2; host or cells: HeLa cells stimulated with human IFN-γ. Format: cell-based. As to the method: (§1) Brief descriptions of the cellular assays are provided following the table.
T1 sequence (P14902 whole entry): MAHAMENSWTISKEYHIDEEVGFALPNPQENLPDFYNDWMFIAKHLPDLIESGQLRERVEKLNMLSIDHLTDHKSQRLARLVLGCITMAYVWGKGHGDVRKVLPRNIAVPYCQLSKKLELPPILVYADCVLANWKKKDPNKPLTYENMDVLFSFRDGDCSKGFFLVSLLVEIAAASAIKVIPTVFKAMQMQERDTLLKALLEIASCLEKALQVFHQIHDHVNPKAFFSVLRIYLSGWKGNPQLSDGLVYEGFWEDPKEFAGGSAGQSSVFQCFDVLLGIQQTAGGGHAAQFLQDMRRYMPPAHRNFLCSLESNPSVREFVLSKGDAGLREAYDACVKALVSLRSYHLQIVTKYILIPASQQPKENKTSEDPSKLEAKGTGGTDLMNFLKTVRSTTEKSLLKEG
(§2) Compounds of the present invention were tested via high-throughput cellular assays utilizing detection of kynurenine via mass spectrometry and cytotoxicity as end-points. For the mass spectrometry and cytotoxicity assays, human epithelial HeLa cells (CCL-2; ATCC®, Manassas, Va.) were stimulated with human interferon-γ (IFN-γ) (Sigma-Aldrich Corporation, St. Louis, Mo.) to induce the expression of indoleamine 2,3-dioxygenase (IDO1). Compounds with IDO1 inhibitory properties decreased the amount of kynurenine produced by the cells via the tryptophan catabolic pathway. Cellular toxicity due to the effect of compound treatment was measured using CellTiter-Glo® reagent (CTG) (Promega Corporation, Madison, Wis.), which is based on luminescent detection of ATP, an indicator of metabolically active cells.
(§3) In preparation for the assays, test compounds were serially diluted 3-fold in DMSO from a typical top concentration of 5 mM and plated at 0.5 μL in 384-well, polystyrene, clear bottom, tissue culture treated plates with lids (Greiner Bio-One, Kremsmünster, Austria) to generate 11-point dose response curves. Low control wells (0% kynurenine or 100% cytotoxicity) contained either 0.5 μL of DMSO in the presence of unstimulated (−IFN-γ) HeLa cells for the mass spectrometry assay or 0.5 μL of DMSO in the absence of cells for the cytotoxicity assay, and high control wells (100% kynurenine or 0% cytotoxicity) contained 0.5 μL of DMSO in the presence of stimulated (+IFN-γ) HeLa cells for both the mass spectrometry and cytotoxicity assays.
Frozen stocks of HeLa cells were washed and recovered in DMEM high glucose medium with HEPES (Thermo Fisher Scientific, Inc., Waltham, Mass.) supplemented with 10% v/v certified fetal bovine serum (FBS) (Thermo Fisher Scientific, Inc., Waltham, Mass.), and 1× penicillin-streptomycin antibiotic solution (Thermo Fisher Scientific, Inc., Waltham, Mass.). The cells were diluted to 100,000 cells/mL in the supplemented DMEM medium. 50 μL of either the cell suspension, for the mass spectrometry assay, or medium alone, for the cytotoxicity assay, were added to the low control wells, on the previously prepared 384-well compound plates, resulting in 5,000 cells/well or 0 cells/well respectively. IFN-γ was added to the remaining cell suspension at a final concentration of 10 nM, and 50 μL of the stimulated cells were added to all remaining wells on the 384-well compound plates. The plates, with lids, were then placed in a 37° C., 5% CO2 humidified incubator for 2 days.
(§4) Following incubation, the 384-well plates were removed from the incubator and allowed to equilibrate to room temperature for 30 minutes. For the cytotoxicity assay, CellTiter-Glo® was prepared according to the manufacturer's instructions, and 10 μL were added to each plate well. After a twenty minute incubation at room temperature, luminescence was read on an EnVision® Multilabel Reader (PerkinElmer Inc., Waltham, Mass.). For the mass spectrometry assay, 10 μL of supernatant from each well of the compound-treated plates were added to 40 μL of acetonitrile, containing 10 μM of an internal standard for normalization, in 384-well, polypropylene, V-bottom plates (Greiner Bio-One, Kremsmünster, Austria) to extract the organic analytes. Following centrifugation at 2000 rpm for 10 minutes, 10 μL from each well of the acetonitrile extraction plates were added to 90 μL of sterile, distilled H2O in 384-well, polypropylene, V-bottom plates for analysis of kynurenine and the internal standard on the RapidFire 300 (Agilent Technologies, Santa Clara, Calif.) and 4000 QTRAP MS (SCIEX, Framingham, Mass.). MS data were integrated using Agilent Technologies' RapidFire Integrator software, and data were normalized for analysis as a ratio of kynurenine to the internal standard. […]

The target of assay [2] is T1, indoleamine 2,3-dioxygenase (IDO1). Description: PBMC IDOi assay (kynurenine by mass spectrometry). The assay is classed as cell-based. Conditions: IFN-γ and LPS stimulated human PBMC, 2 days, kynurenine detected by mass spectrometry; read-out: PBMC pIC50 (converted). The method, then: as §1
as §2, with “peripheral blood mononuclear” for “epithelial HeLa”, “(PBMC) (PB003F; AllCells®, Alameda, Calif.)” for “(CCL-2; ATCC®, Manassas, Va.)”, “Mo.) and lipopolysaccharide from Salmonella minnesota (LPS) (Invivogen, San Diego, Calif.)” for “Mo.)”
as §3, with “(−IFN-γ/−LPS) PBMCs” for “(−IFN-γ) HeLa cells”, “(+IFN-γ/+LPS) PBMCs” for “(+IFN-γ) HeLa cells”
Frozen stocks of PBMCs were washed and recovered in RPMI 1640 medium (Thermo Fisher Scientific, Inc., Waltham, Mass.) supplemented with 10% v/v heat-inactivated fetal bovine serum (FBS) (Thermo Fisher Scientific, Inc., Waltham, Mass.), and 1× penicillin-streptomycin antibiotic solution (Thermo Fisher Scientific, Inc., Waltham, Mass.). The cells were diluted to 1,000,000 cells/mL in the supplemented RPMI 1640 medium. 50 μL of either the cell suspension, for the mass spectrometry assay, or medium alone, for the cytotoxicity assay, were added to the low control wells, on the previously prepared 384-well compound plates, resulting in 50,000 cells/well or 0 cells/well respectively. IFN-γ and LPS were added to the remaining cell suspension at final concentrations of 100 ng/ml and 50 ng/ml respectively, and 50 μL of the stimulated cells were added to all remaining wells on the 384-well compound plates. The plates, with lids, were then placed in a 37° C., 5% CO2 humidified incubator for 2 days.
as §4, with “and 40” for “and 10”, “Mass.).” for “Mass.). MS data were integrated using Agilent Technologies' RapidFire Integrator software, and data were normalized for analysis as a ratio of kynurenine to the internal standard.”

On to `Cc1ccc(OC(=O)Nc2cc(-c3ccccc3-c3nn[nH]n3)ccc2SC(C)(C)C)cc1` [Example 35, p-Tolyl (4-(tert-butylthio)-2′-(2H-tetrazol-5-yl)-[1,1′-biphenyl]-3-yl)carbamate], for which the IC50 in assay [1] is more than 3160 nM; in assay [2], 1580 nM.
For `CC(C)(C)Sc1ccc(-c2ccccc2-c2nn[nH]n2)cc1NC(=O)c1ccccc1` [Example 36, N-(4-(tert-butylthio)-2′-(2H-tetrazol-5-yl)-[1,1′-biphenyl]-3-yl)benzamide] the same measures were 2510 nM and 1260 nM.
For `Cc1ccc(CCC(=O)Nc2cc(-c3ccccc3-c3nn[nH]n3)ccc2SC(C)(C)C)cc1` [Example 37, N-(4-(tert-butylthio)-2′-(2H-tetrazol-5-yl)-[1,1′-biphenyl]-3-yl)-3-(p-tolyl)propanamide] the same measures were 794 nM and 251 nM.
Turning to `Cc1cc(C)c(CC(=O)Nc2cc(-c3ccccc3-c3nn[nH]n3)ccc2SC(C)(C)C)c(C)c1` [Example 39, N-(4-(tert-butylthio)-2′-(2H-tetrazol-5-yl)-[1,1′-biphenyl]-3-yl)-2-mesitylacetamide], the results for the IC50 in assay [1] and in assay [2] were 2.51 nM and 1.58 nM, respectively.
With `CC(C)(C)Sc1ccc(-c2ccccc2-c2nn[nH]n2)cc1NC(=O)Cc1ccc(Br)cc1` [Example 40, 2-(4-Bromophenyl)-N-(4-(tert-butylthio)-2′-(2H-tetrazol-5-yl)-[1,1′-biphenyl]-3-yl)acetamide], the values for the IC50 in assay [1] and in assay [2] were 31.6 nM and 20 nM, respectively.
For `CC(C)(C)Sc1ccc(-c2ccccc2-c2nn[nH]n2)cc1Nc1nc(C(F)(F)F)ns1` [Example 43, N-(4-(tert-butylthio)-2′-(2H-tetrazol-5-yl)-[1,1′-biphenyl]-3-yl)-3-(trifluoromethyl)-1,2,4-thiadiazol-5-amine] the same measures were 50.1 nM and 12.6 nM.
The matching figures for `Cc1ccc(CC(=O)Nc2cc(-c3ccccc3C#N)ccc2SC(C)(C)C)cc1` [Example 46, N-(4-(tert-butylthio)-2′-cyano-[1,1′-biphenyl]-3-yl)-2-(p-tolyl)acetamide]: 6310 nM and 5010 nM.
Regarding `Cc1ccc(CC(=O)Nc2cc(-c3ccccc3C(N)=O)ccc2SC(C)(C)C)cc1` [Example 47, 4′-(tert-Butylthio)-3′-(2-(p-tolyl)acetamido)-[1,1′-biphenyl]-2-carboxamide], the IC50 in assay [1] and in assay [2] was 501 nM each time.
For the molecule `Cc1ccc(CC(=O)Nc2cc(-c3ccccc3-c3nnn(COP(=O)(O)O)n3)ccc2SC(C)(C)C)cc1` [Example 51, (5-(4′-(tert-Butylthio)-3′-(2-(p-tolyl)acetamido)-[1,1′-biphenyl]-2-yl)-2H-tetrazol-2-yl)methyl Dihydrogen Phosphate], the values for the IC50 in assay [1] and in assay [2] were 15.8 nM and 63.1 nM, respectively.
Consider `Cc1ccc(CC(=O)Nc2cc(-c3ccccc3-c3nnnn3COP(=O)(O)O)ccc2SC(C)(C)C)cc1` [Example 52, (5-(4′-(tert-Butylthio)-3′-(2-(p-tolyl)acetamido)-[1,1′-biphenyl]-2-yl)-1H-tetrazol-1-yl)methyl Dihydrogen], for which the IC50 in assay [1] was 25.1 nM; in assay [2], 158 nM.
Take `Cc1ccc(CC(=O)Nc2cc(-c3ccccc3-c3nnn(COC(=O)C(C)(C)C)n3)ccc2SC(C)(C)C)cc1` [Example 55, (5-(4′-(tert-Butylthio)-3′-(2-(p-tolyl)acetamido)-[1,1′-biphenyl]-2-yl)-2H-tetrazol-2-yl)methyl pivalate]: the IC50 in assay [1] was 31.6 nM; in assay [2], 50.1 nM.
The matching figures for `Cc1ccc(CC(=O)Nc2cc(-c3ccccc3-c3nnnn3COC(=O)C(C)(C)C)ccc2SC(C)(C)C)cc1` [Example 56, (5-(4′-(tert-butylthio)-3′-(2-(p-tolyl)acetamido)-[1,1′-biphenyl]-2-yl)-1H-tetrazol-1-yl)methyl Pivalate]: 31.6 nM and 20 nM.
For `Cc1ccc(CC(=O)Nc2cc(-c3ccccc3-c3nnn[nH]3)cnc2SC(C)(C)C)cc1` [Example 64, N-(5-(2-(1H-tetrazol-5-yl)phenyl)-2-(tert-butylthio)pyridin-3-yl)-2-(p-tolyl)acetamide] the same measures were 63.1 nM and 50.1 nM.
For `CC(C)(C)Sc1ncc(-c2ccccc2-c2nnn[nH]2)cc1NC(=O)Cc1ccc(C(F)(F)F)cc1` [Example 65, N-(5-(2-(1H-tetrazol-5-yl)phenyl)-2-(tert-butylthio)pyridin-3-yl)-2-(4-(trifluoromethyl)phenyl)acetamide] the same measures were 39.8 nM and 25.1 nM.
For the molecule `Cc1ccc(CC(=O)Nc2cc(-c3ccccc3-c3nnn[nH]3)cnc2SC(C)(C)C)c(C)c1` [Example 66, N-(5-(2-(1H-tetrazol-5-yl)phenyl)-2-(tert-butylthio)pyridin-3-yl)-2-(2,4-dimethylphenyl)acetamide], the results for the IC50 in assay [1] and in assay [2] were 10 nM and 7.94 nM, respectively.
